From patent EP3325012B1, “CINEOLE-CONTAINING COMPOSITION FOR TREATING NOSE POLYPS” (Maria Clementine Martin Klosterfrau Vertriebsgesellschaft …, priority 2015, dated 2017)
Entries after “also recorded” stand apart in the source; their conditions may differ.

Tests used:
[1] = tested on: Transkriptionsfaktors NF-kB; assay: NF-kB transcription factor activity in polyp material; format: cell-based, Mensch; settings: in Polyposis nasi et sinuum; TNF-alpha as positive control
Description: Da auch für Polyposis nasi et sinuum postuliert wird, dass Entzündungsparameter einen entscheidenden Einfluss auf die Progression dieser Erkrankung haben, untersuchte die Anmelderin den Einfluss von Cineol auf die Aktivität des Transkriptionsfaktors Nuclear Factor kappa B (NF-kB) und auf die Aktivität eines breiten Spektrums verschiedener Phosphokinasen, um so die molekularen Angriffspunkte von Cineol in verschiedenen Biosynthesewegen der Zelle hinsichtlich des Polyposis nasi et sinuum-"Mikromilieus" zu identifizieren.
Bei den Messergebnissen wurde TNF-alpha (tumor necrosis factor-alpha) als etablierter Stimulus der NF-kB Aktivität und somit als interne Positivkontrolle verwendet.

HNSCC-Zelllinien = assay: MTT assay, vitality and proliferation of HNSCC cell lines; format: cell-based; settings: 1 mM bis 10 mM, 250 Stunden, two cell lines
Procedure: Es wurden weiterführende Untersuchungen durchgeführt zur Analyse des Einflusses von Cineol auf die Vitalität und Proliferation verschiedener permanenter Zelllinien. Hierzu wurden einerseits die zwei HNSCC-Zelllinien und des Weiteren eine Fibroblastenzelllinie verwendet. Diese wurden über einen Zeitraum von 250 Stunden mit verschiedenen Cineol-Konzentrationen kultiviert (1 mM bis 10 mM) und die Vitalität der Zellen wurde jeweils mittels eines MTT-Assays untersucht.

Nasenpolypenzellen = assay: Proliferation of nasal polyp cells (xCELLigence Real Time Cell Analyzer; figure legend says MTT test); format: cell-based, Mensch; settings: 100 µM 1,8-Cineol, after 144 Stunden; two subjects I and II (Figur 2A)
Description: Material und Methoden: Die Anmelderin hat Gewebeproben aus Nasenpolypen und unteren Nasenmuscheln von Patienten mit CRSwNP (chronischer Rhinosinusitis mit Nasenpolypen) und aus unteren Nasenmuscheln von Probanden ohne chronische Sinusitis (gesunde Schleimhaut) auf Basis von immunohistochemischen Methoden und Immunoblot-Verfahren untersucht. Die zelluläre Proliferation und Migration wurden unter Einsatz des xCELLigence Real Time Cell Analyzer untersucht.
Proben von Nasenpolypen wurden in PBS-Puffer gewaschen und in sterilem serumfreiem "High Glucose Dulbecco's Modified Eagle Medium" (PAA, Pasching, Österreich) mit einer Skalpellklinge vorsichtig in kleine Stücke zerkleinert, wobei das Medium 1 % L-Glutamin, 1 % Natriumpyruvat, 1 % nichtessentielle Aminosäuren, 2 % Amphotericin B, 2 % Streptomycin und 2 % Penicillin, ergänzt mit 10 % FCS, und 25 mM HEPES Puffer, enthielt (alle von PAA, Pasching, Österreich). […]
Die Zellproliferation wurde mittels eines quantitativen kolorimetrischen 3-(4,5-Dimethylthiazol 2-yl)-2,5-diphenyltetrazoliumbromid-basierten (MTT) Zelltests bestimmt. […]

Phosphokinasen = assay: Human Phospho-Kinase Antibody Array on nasal epithelial cells; format: cell-based, Mensch; settings: 100 µM, 24 Stunden; epithelial cells from nasal polyps compared with epithelial cells from inferior turbinates
Description: Pflanzliche Medikationen könnten diese Nebenwirkungen reduzieren. In der Naturheilkunde werden ätherische Öle aufgrund ihrer sekretolytischen Eigenschaften zur Behandlung von Menschen eingesetzt, die klinische Verwendung wird jedoch aufgrund von Reizungen der Atemwege nach Inhalation bzw. Aufnahme eingeschränkt. Der Hauptbestandteil von Eukalyptusöl, nämlich 1,8-Cineol, wurde zur Behandlung von akuter und chronischer Bronchitis, Sinusitis und respiratorischen Infekten eingesetzt und allgemein gut vertragen. Bei dem Monoterpen 1,8-Cineol handelt es sich um ein Isoprenoid mit antiinflammatorischen Eigenschaften, welches menschlichen Isoprenoiden, wie Glucocorticoid, ähnelt. Unlängst wurden seitens der Anmelderin neue Eigenschaften des Mechanismus von 1,8-Cineol in Epithelzellen des Nasenpolypengewebes von Patienten mit chronischer Rhinosinusitis entdeckt. Im Rahmen dieser Studien hat die Anmelderin Epithelzellen aus Nasenpolypen und Gewebe der unteren Nasenmuscheln von zahlreichen Patienten isoliert und über einen Zeitraum von 24 Stunden in 100 µM 1,8-Cineol inkubiert. Die Proteine wurden isoliert und die Phosphokinasen mit Hilfe des "Human Phospho-Kinase Antibody Array" von R&D Systems ermittelt. […]

In the case of `CC12CCC(CC1)C(C)(C)O2` [1,8-Cineol, 1,3,3-Trimethyl-2-oxabicyclo[2.2.2]octan], the “Aktivität des Transkriptionsfaktors NF-kB” value [1] is reported as “keinen inhibierenden Einfluss hierauf hat, sondern vielmehr leicht aktivierend”, the “Progression und Vitalität von HNSCC” value (HNSCC-Zelllinien) is reported as “inhibierender Einfluss” and the “Proliferation von Nasenpolypenzellen” value (Nasenpolypenzellen) is reported as “stark verringerte Proliferation; also recorded: stark abnehmende Proliferation”. The “Expression von Phosphokinasen” value (Phosphokinasen) was “veränderte Expression”.
